Measured values as given in patent US20080275032A1, “Pyridazinone compounds” (priority 2006, published 2008).
Each block holds one compound with its values, some of them ahead of it.

Target: HCV NS5B polymerase (Hepatitis C virus genotype 1b, UniProt P26663)
Assay: biochemical
Conditions: HCV polymerase inhibition, 50 nM enzyme, 2 h at room temperature, FlashPlate [α-33P]GTP incorporation
Protocol: NS5B Polymerase Inhibition Assay (IC50)
Compounds were tested for HCV polymerase inhibition. Assays were performed in a 96-well streptavidin-coated FlashPlate using 50 nM enzyme, 0.5 μCi of [α-^33P]GTP, 0.6 μM GTP, and 50 nM 5′biotinylated oligo (rG13)/poly rC in 20 mM Tris-HCl, pH 7.5, 5 mM MgCl2, 20 mM NaCl, 5 mM dithiothreitol, and 0.1 g/L BSA. The reaction was stopped by aspiration after 2 h at room temperature and the plate was washed several times. After washing, incorporated radioactivity was counted using a Microbeta scintillation counter.

HCV NS5B polymerase, sequence (P26663 2420-3010): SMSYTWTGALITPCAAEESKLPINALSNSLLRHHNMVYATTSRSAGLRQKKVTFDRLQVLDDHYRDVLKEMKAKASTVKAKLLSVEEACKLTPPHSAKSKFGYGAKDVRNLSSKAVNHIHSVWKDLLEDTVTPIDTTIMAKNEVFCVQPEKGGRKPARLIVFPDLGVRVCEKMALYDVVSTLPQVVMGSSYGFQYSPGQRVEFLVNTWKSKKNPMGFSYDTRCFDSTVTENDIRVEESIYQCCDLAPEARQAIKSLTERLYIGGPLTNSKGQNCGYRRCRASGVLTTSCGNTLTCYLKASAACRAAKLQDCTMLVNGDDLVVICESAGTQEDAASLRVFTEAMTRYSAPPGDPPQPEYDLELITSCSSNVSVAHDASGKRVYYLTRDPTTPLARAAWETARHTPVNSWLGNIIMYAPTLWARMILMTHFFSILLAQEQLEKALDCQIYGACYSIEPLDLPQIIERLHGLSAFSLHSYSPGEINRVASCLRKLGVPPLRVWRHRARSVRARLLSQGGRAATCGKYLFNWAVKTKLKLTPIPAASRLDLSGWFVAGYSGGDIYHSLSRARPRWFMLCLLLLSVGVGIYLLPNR

SMILES: CC(C)CCn1nc(-c2cncs2)c(O)c(C2=Nc3ccc(N(CCO)S(C)(=O)=O)cc3S(=O)(=O)N2)c1=O [N-(2-Hydroxy-ethyl)-N-{3-[5-hydroxy-2-(3-methyl-butyl)-3-oxo-6-thiazol-5-yl-2,3-dihydro-pyridazin-4-yl]-1,1-dioxo-1,2-dihydro-1λ^6-benzo[1,2,4]thiadiazin-7-yl}-methanesulfonamide]
IC50: 100 to 1000 nM

SMILES: CC(C)CCn1nc(-c2cccs2)c(OCOC(=O)C(C)(C)C)c(C2=Nc3ccc(N(C)S(C)(=O)=O)cc3S(=O)(=O)N2)c1=O [2,2-Dimethyl-propionic acid 5-[7-(methanesulfonyl-methyl-amino)-1,1-dioxo-1,2-dihydro-1λ^6-benzo[1,2,4]thiadiazin-3-yl]-1-(3-methyl-butyl)-6-oxo-3-thiophen-2-yl-1,6-dihydro-pyridazin-4-yloxymethyl ester]
IC50: 1000 to 10000 nM

SMILES: CC(C)CCn1nc(CC2=CCCC2)c(O)c(C2=NS(=O)(=O)c3cc(NS(C)(=O)=O)ccc3N2)c1=O [N-{3-[6-Cyclopent-1-enylmethyl-5-hydroxy-2-(3-methyl-butyl)-3-oxo-2,3-dihydro-pyridazin-4-yl]-1,1-dioxo-1,2-dihydro-1λ^6-benzo[1,2,4]thiadiazin-7-yl}-methanesulfonamide]
IC50: 100 to 1000 nM

SMILES: CC(C)CCn1nc(-c2cccs2)c(OC(=O)C(C)C)c(C2=Nc3ccc(N(C)S(C)(=O)=O)cc3S(=O)(=O)N2)c1=O [Isobutyric acid 5-[7-(methanesulfonyl-methyl-amino)-1,1-dioxo-1,2-dihydro-1λ^6-benzo[1,2,4]thiadiazin-3-yl]-1-(3-methyl-butyl)-6-oxo-3-thiophen-2-yl-1,6-dihydro-pyridazin-4-yl ester]
IC50: 1000 to 10000 nM

SMILES: CN1C(c2c(O)c(-c3cccs3)nn(Cc3ccc(F)cc3)c2=O)=NS(=O)(=O)c2cc(NS(C)(=O)=O)ccc21 [N-{3-[2-(4-Fluoro-benzyl)-5-hydroxy-3-oxo-6-thiophen-2-yl-2,3-dihydro-pyridazin-4-yl]-4-methyl-1,1-dioxo-1,4-dihydro-1λ^6-benzo[1,2,4]thiadiazin-7-yl}-methanesulfonamide]
IC50: 1000 to 10000 nM

SMILES: CCC(C)n1nc(-c2cccs2)c(O)c(C2=NS(=O)(=O)c3cc(NS(C)(=O)=O)ccc3N2)c1=O (stereo not drawn) [N-[3-(2-sec-Butyl-5-hydroxy-3-oxo-6-thiophen-2-yl-2,3-dihydro-pyridazin-4-yl)-1,1-dioxo-1,2-dihydro-1λ^6-benzo[1,2,4]thiadiazin-7-yl]-methanesulfonamide]
IC50: 100 to 1000 nM

SMILES: C=CS(=O)(=O)N(C)c1ccc2c(c1)S(=O)(=O)NC(c1c(O)c(-c3cccs3)nn(CCC(C)(C)C)c1=O)=N2 [Ethenesulfonic acid {3-[2-(3,3-dimethyl-butyl)-5-hydroxy-3-oxo-6-thiophen-2-yl-2,3-dihydro-pyridazin-4-yl]-1,1-dioxo-1,2-dihydro-1λ^6-benzo[1,2,4]thiadiazin-7-yl}-methyl-amide]
IC50: 1000 to 10000 nM

SMILES: CS(=O)(=O)Nc1ccc2c(c1)S(=O)(=O)N=C(c1c(O)c(-c3cccs3)nn(CCC3CCCCC3)c1=O)N2 [N-{3-[2-(2-Cyclohexyl-ethyl)-5-hydroxy-3-oxo-6-thiophen-2-yl-2,3-dihydro-pyridazin-4-yl]-1,1-dioxo-1,2-dihydro-1λ^6-benzo[1,2,4]thiadiazin-7-yl}-methanesulfonamide]
IC50: 100 to 1000 nM

SMILES: CC(C)CCn1nc(-c2cccs2)c(O)c(C2=Nc3ccc(/C=C/S(C)(=O)=O)cc3S(=O)(=O)N2)c1=O [5-Hydroxy-4-[7-(2-methanesulfonyl-vinyl)-1,1-dioxo-1,2-dihydro-1λ^6-benzo[1,2,4]thiadiazin-3-yl]-2-(3-methyl-butyl)-6-thiophen-2-yl-2H-pyridazin-3-one]
IC50: 100 to 1000 nM

SMILES: CC(C)CCn1nc(-c2cccs2)c(O)c(C2=Nc3ccc(N(C(C)C)S(C)(=O)=O)cc3S(=O)(=O)N2)c1=O [N-{3-[5-Hydroxy-2-(3-methyl-butyl)-3-oxo-6-thiophen-2-yl-2,3-dihydro-pyridazin-4-yl]-1,1-dioxo-1,2-dihydro-1λ^6-benzo[1,2,4]thiadiazin-7-yl}-N-isopropyl-methanesulfonamide]
IC50: 1000 to 10000 nM

SMILES: CC(C)(C)CCn1nc(-c2cccs2)c(O)c(C2=NS(=O)(=O)c3cc(N(COC(=O)C(C)(C)C)S(C)(=O)=O)ccc3N2)c1=O [2,2-Dimethyl-propionic acid ({3-[2-(3,3-dimethyl-butyl)-5-hydroxy-3-oxo-6-thiophen-2-yl-2,3-dihydro-pyridazin-4-yl]-1,1-dioxo-1,2-dihydro-1λ^6-benzo[1,2,4]thiadiazin-7-yl}-methanesulfonyl-amino)-methylester]
IC50: 100 to 1000 nM

SMILES: CC(C)CCn1nc(-c2cccs2)c(O)c(C2=Nc3ccc(NCCS(N)(=O)=O)cc3S(=O)(=O)N2)c1=O [2-{3-[5-Hydroxy-2-(3-methyl-butyl)-3-oxo-6-thiophen-2-yl-2,3-dihydro-pyridazin-4-yl]-1,1-dioxo-1,2-dihydro-1λ^6-benzo[1,2,4]thiadiazin-7-ylamino}-ethanesulfonic acid amide]
IC50: 100 to 1000 nM

SMILES: CC(C)CCn1nc(CCC2OCCCO2)c(O)c(C2=Nc3ccc(NS(C)(=O)=O)cc3S(=O)(=O)N2)c1=O [N-{3-[6-(2-[1,3]Dioxan-2-yl-ethyl)-5-hydroxy-2-(3-methyl-butyl)-3-oxo-2,3-dihydro-pyridazin-4-yl]-1,1-dioxo-1,2-dihydro-1λ^6-benzo[1,2,4]thiadiazin-7-yl}-methanesulfonamide]
IC50: 100 to 1000 nM

SMILES: CC(C)CCn1nc(-c2ccccc2)c(O)c(C2=Nc3ccc(N(C)S(C)(=O)=O)cc3S(=O)(=O)N2)c1=O [N-{3-[5-Hydroxy-2-(3-methyl-butyl)-3-oxo-6-phenyl-2,3-dihydro-pyridazin-4-yl]-1,1-dioxo-1,2-dihydro-1λ^6-benzo[1,2,4]thiadiazin-7-yl}-N-methyl-methanesulfonamide]
IC50: 1000 to 10000 nM

SMILES: CC(C)CCn1nc(-c2cccs2)c(O)c(C2=NS(=O)(=O)c3cc(N(C)S(C)(=O)=O)ccc3N2C)c1=O [N-{3-[5-Hydroxy-2-(3-methyl-butyl)-3-oxo-6-thiophen-2-yl-2,3-dihydro-pyridazin-4-yl]-4-methyl-1,1-dioxo-1,4-dihydro-1λ^6-benzo[1,2,4]thiadiazin-7-yl}-N-methyl-methanesulfonamide]
IC50: 1000 to 10000 nM

SMILES: CC(C)CCn1nc(-c2cncs2)c(O)c(C2=Nc3ccc(NS(=O)(=O)C(C)(C)C)cc3S(=O)(=O)N2)c1=O [2-Methyl-propane-2-sulfonic acid{3-[5-hydroxy-2-(3-methyl-butyl)-3-oxo-6-thiazol-5-yl-2,3-dihydro-pyridazin-4-yl]-1,1-dioxo-1,2-dihydro-1λ^6-benzo[1,2,4]thiadiazin-7-yl}-amide]
IC50: < 100 nM

Second part, the compound after the results:

IC50: < 100 nM
SMILES: CC(C)CCn1nc(-c2cccs2)c(O)c(C2=NS(=O)(=O)c3cc(NS(=O)(=O)C(C)C)ccc3N2)c1=O [Propane-2-sulfonic acid {3-[5-hydroxy-2-(3-methyl-butyl)-3-oxo-6-thiophen-2-yl-2,3-dihydro-pyridazin-4-yl]-1,1-dioxo-1,2-dihydro-1λ^6-benzo[1,2,4]thiadiazin-7-yl}-amide]

IC50: < 100 nM
SMILES: CS(=O)(=O)Nc1ccc2c(c1)S(=O)(=O)NC(c1c(O)c(-c3cncs3)nn(Cc3ccc(F)cc3)c1=O)=N2 [N-{3-[2-(4-Fluoro-benzyl)-5-hydroxy-3-oxo-6-thiazol-5-yl-2,3-dihydro-pyridazin-4-yl]-1,1-dioxo-1,2-dihydro-1λ^6-benzo[1,2,4]thiadiazin-7-yl}-methanesulfonamide]

IC50: < 100 nM
SMILES: CCC(C)(C)CCn1nc(-c2cccs2)c(O)c(C2=NS(=O)(=O)c3cc(NS(C)(=O)=O)ccc3N2)c1=O [N-{3-[2-(3,3-Dimethyl-pentyl)-5-hydroxy-3-oxo-6-thiophen-2-yl-2,3-dihydro-pyridazin-4-yl]-1,1-dioxo-1,2-dihydro-1λ^6-benzo[1,2,4]thiadiazin-7-yl}-methanesulfonamide]

IC50: < 100 nM
SMILES: CC(C)(C)CCn1nc(-c2cccs2)c(O)c(C2=NS(=O)(=O)c3cc(NS(N)(=O)=O)ccc3N2)c1=O [N-{3-[2-(3,3-Dimethyl-butyl)-5-hydroxy-3-oxo-6-thiophen-2-yl-2,3-dihydro-pyridazin-4-yl]-1,1-dioxo-1,2-dihydro-1λ^6-benzo[1,2,4]thiadiazin-7-yl}-sulfamide]

IC50: < 100 nM
SMILES: CS(=O)(=O)Nc1ccc2c(c1)S(=O)(=O)N=C(c1c(O)c(-c3cccs3)nn(Cc3ccsc3)c1=O)N2 [N-[3-(5-Hydroxy-3-oxo-6-thiophen-2-yl-2-thiophen-3-ylmethyl-2,3-dihydro-pyridazin-4-yl)-1,1-dioxo-1,2-dihydro-1λ^6-benzo[1,2,4]thiadiazin-7-yl]-methanesulfonamide]

IC50: < 100 nM
SMILES: CS(=O)(=O)Nc1ccc2c(c1)S(=O)(=O)NC(c1c(O)c(-c3ccsc3)nn(CCC3CC3)c1=O)=N2 [N-{3-[2-(2-Cyclopropyl-ethyl)-5-hydroxy-3-oxo-6-thiophen-3-yl-2,3-dihydro-pyridazin-4-yl]-1,1-dioxo-1,2-dihydro-1λ^6-benzo[1,2,4]thiadiazin-7-yl}-methanesulfonamide]

IC50: < 100 nM
SMILES: CS(=O)(=O)Nc1ccc2c(c1)S(=O)(=O)N=C(c1c(O)c(-c3cccs3)nn(Cc3ccc(F)c(Cl)c3)c1=O)N2 [N-{3-[2-(3-Chloro-4-fluoro-benzyl)-5-hydroxy-3-oxo-6-thiophen-2-yl-2,3-dihydro-pyridazin-4-yl]-1,1-dioxo-1,2-dihydro-1λ^6-benzo[1,2,4]thiadiazin-7-yl}-methanesulfonamide]

IC50: < 100 nM
SMILES: CS(=O)(=O)Nc1ccc2c(c1)S(=O)(=O)NC(c1c(O)c(-c3cccs3)nn(Cc3ccccn3)c1=O)=N2 [N-[3-(5-Hydroxy-3-oxo-2-pyridin-2-ylmethyl-6-thiophen-2-yl-2,3-dihydro-pyridazin-4-yl)-1,1-dioxo-1,2-dihydro-1λ^6-benzo[1,2,4]thiadiazin-7-yl]-methanesulfonamide]
